One data set addresses LRRK2 G2019S enzyme (Homo sapiens, UniProt Q5S007, G2019S). Nature of the data set: LRRK2 G2019S TR-FRET biochemical assay (Biological Example 1). The conditions noted are these: 134 μM ATP, 5 nM LRRK2, LRRKtide substrate. The procedure: • LRRK2 G2019S enzyme • Substrate (LRRKtide) • ATP • TR-FRET dilution buffer • pLRRKtide antibody • 384-well assay plate • DMSO Enzyme Reaction Conditions • 50 mM Tris pH 7.5, 10 mM MgCl2, 1 mM EGTA, 0.01% Brij-35, 2 mM DTT • 5 nM LRRK2 • 134 μM ATP • 60 minute reaction time • 23° C. reaction temperature • 10 μL total reaction volume Detection Reaction Conditions • 1×TR-FRET dilution buffer • 10 mM EDTA • 2 nM antibody • 23° C. reaction temperature • 10 μL total reaction volume
Compounds are prepared by initially diluting to 1 mM with DMSO. 35 μL of reference compound solution, 35 μL of test compound solution, and 35 μL HPE are successively added to the source plate (384-well assay plate, Labcyte). The plates are centrifuged at 2500 rpm for 1 minute and sealed in foil. POD is used to perform a 3.162 fold serial dilution and 100 nL of reference compound solution, test compound solution, HPE and ZPE are transferred to assay plates. The assay plate is centrifuged at 2500 rpm for 1 minute, and sealed with foil.
To perform the enzyme reaction, 5 μL of LRRKtide substrate and kinase mixture in assay buffer is added to all wells of the assay plate. The plate is centrifuged to concentrate the mixture at the bottom of the wells. The assay plate is incubated at 23° C. for 20 minutes. Following incubation, 5 μL of 2×ATP in assay buffer is added to each well, and plates are centrifuged to concentrate the mixture at the bottom of the wells. The plate is incubated at 23° C. for 60 minutes.
To perform the detection of the reaction, EDTA completely mixed in TR-FRET dilution buffer is added to antibody reagent. 10 μL of detection reagent is added to all wells of each well of the assay plate and the plate is centrifuged to concentrate the mixture at the bottom of the wells. The plate is then incubated at 23° C. for 60 minutes. Plates are read on Perkin Elmer Envision 2104 instrument in TR-FRET mode using a 340 nm excitation filter, 520 nm fluorescence emission filter, and 490 or 495 nm terbium emission filter.
On the technique in general: In TR-FRET formats the signal depends on donor and acceptor labels being close together.

Data set [1] is described as follows: Metabolic stability in human liver microsomes (Biological Example 2). It is filed as in vitro ADME. To be noted: hepatic clearance (CLhep) scaled from human liver microsomes, 1 μM, well-stirred model. The procedure: Metabolic stability of select compounds was evaluated in human liver microsomes (from Corning or XenoTech, LLC) using a 96-well plate assay format. Compounds were incubated at 37° C. at 1 μM final concentration in the microsomal matrix (0.5 mg/mL total protein) in the presence or absence of NADPH cofactor. An NADPH regenerating system, comprised of NADP, MgCl2, isocitric acid, and isocitrate dehydrogenase, was used in the assay. Enzymatic reactions were conducted for 0, 5, 10, 20, 30, or 60 min before termination by addition of acetonitrile containing tolbutamide and labetalol internal standards (100 ng/mL). After shaking for 10 min, plates were subjected to centrifugation (4000 rpm at 4° C.) for 20 min and supernatants mixed 1:3 with HPLC grade water. Samples were analyzed by LC-MS/MS using appropriate MRM transitions for each analyte and internal standard (IS). Analyte/IS peak area ratios were used to determine percent compound remaining at each time point. Intrinsic clearance (Clint; expressed as mL·min^−1·mg^−1) was calculated from the first order elimination constant (k, min^−1) of test article decay and the volume of the incubation. These values were scaled to intrinsic organ clearance (Clint) using human specific scaling factors (48.8 mg microsomal protein per g liver; 25.7 g liver per kg body weight). Organ Clint was subsequently converted to hepatic clearance, HLM, (CLhep, mL·min-1·kg-1) using the well-stirred model of hepatic elimination, where Qh is human hepatic blood flow (20.7 mL·min-1·kg-1).
CLhep is the projected human clearance in the liver based on the above in vitro assay. A lower value is indicative of less compound being removed by the liver.
(Liver microsomes are a subcellular fraction often used to study metabolism.)

The target in data set [2] is T1, FLAG-tagged human LRRK2 with G2019S mutation (Homo sapiens, UniProt Q5S007, G2019S).
T1 construct: expressed in transfected cells; host or cells: HEK293 / 293T cells, transient transfection with pCMV-FLAG-G2019S
T1 sequence (Q5S007 whole entry G2019S): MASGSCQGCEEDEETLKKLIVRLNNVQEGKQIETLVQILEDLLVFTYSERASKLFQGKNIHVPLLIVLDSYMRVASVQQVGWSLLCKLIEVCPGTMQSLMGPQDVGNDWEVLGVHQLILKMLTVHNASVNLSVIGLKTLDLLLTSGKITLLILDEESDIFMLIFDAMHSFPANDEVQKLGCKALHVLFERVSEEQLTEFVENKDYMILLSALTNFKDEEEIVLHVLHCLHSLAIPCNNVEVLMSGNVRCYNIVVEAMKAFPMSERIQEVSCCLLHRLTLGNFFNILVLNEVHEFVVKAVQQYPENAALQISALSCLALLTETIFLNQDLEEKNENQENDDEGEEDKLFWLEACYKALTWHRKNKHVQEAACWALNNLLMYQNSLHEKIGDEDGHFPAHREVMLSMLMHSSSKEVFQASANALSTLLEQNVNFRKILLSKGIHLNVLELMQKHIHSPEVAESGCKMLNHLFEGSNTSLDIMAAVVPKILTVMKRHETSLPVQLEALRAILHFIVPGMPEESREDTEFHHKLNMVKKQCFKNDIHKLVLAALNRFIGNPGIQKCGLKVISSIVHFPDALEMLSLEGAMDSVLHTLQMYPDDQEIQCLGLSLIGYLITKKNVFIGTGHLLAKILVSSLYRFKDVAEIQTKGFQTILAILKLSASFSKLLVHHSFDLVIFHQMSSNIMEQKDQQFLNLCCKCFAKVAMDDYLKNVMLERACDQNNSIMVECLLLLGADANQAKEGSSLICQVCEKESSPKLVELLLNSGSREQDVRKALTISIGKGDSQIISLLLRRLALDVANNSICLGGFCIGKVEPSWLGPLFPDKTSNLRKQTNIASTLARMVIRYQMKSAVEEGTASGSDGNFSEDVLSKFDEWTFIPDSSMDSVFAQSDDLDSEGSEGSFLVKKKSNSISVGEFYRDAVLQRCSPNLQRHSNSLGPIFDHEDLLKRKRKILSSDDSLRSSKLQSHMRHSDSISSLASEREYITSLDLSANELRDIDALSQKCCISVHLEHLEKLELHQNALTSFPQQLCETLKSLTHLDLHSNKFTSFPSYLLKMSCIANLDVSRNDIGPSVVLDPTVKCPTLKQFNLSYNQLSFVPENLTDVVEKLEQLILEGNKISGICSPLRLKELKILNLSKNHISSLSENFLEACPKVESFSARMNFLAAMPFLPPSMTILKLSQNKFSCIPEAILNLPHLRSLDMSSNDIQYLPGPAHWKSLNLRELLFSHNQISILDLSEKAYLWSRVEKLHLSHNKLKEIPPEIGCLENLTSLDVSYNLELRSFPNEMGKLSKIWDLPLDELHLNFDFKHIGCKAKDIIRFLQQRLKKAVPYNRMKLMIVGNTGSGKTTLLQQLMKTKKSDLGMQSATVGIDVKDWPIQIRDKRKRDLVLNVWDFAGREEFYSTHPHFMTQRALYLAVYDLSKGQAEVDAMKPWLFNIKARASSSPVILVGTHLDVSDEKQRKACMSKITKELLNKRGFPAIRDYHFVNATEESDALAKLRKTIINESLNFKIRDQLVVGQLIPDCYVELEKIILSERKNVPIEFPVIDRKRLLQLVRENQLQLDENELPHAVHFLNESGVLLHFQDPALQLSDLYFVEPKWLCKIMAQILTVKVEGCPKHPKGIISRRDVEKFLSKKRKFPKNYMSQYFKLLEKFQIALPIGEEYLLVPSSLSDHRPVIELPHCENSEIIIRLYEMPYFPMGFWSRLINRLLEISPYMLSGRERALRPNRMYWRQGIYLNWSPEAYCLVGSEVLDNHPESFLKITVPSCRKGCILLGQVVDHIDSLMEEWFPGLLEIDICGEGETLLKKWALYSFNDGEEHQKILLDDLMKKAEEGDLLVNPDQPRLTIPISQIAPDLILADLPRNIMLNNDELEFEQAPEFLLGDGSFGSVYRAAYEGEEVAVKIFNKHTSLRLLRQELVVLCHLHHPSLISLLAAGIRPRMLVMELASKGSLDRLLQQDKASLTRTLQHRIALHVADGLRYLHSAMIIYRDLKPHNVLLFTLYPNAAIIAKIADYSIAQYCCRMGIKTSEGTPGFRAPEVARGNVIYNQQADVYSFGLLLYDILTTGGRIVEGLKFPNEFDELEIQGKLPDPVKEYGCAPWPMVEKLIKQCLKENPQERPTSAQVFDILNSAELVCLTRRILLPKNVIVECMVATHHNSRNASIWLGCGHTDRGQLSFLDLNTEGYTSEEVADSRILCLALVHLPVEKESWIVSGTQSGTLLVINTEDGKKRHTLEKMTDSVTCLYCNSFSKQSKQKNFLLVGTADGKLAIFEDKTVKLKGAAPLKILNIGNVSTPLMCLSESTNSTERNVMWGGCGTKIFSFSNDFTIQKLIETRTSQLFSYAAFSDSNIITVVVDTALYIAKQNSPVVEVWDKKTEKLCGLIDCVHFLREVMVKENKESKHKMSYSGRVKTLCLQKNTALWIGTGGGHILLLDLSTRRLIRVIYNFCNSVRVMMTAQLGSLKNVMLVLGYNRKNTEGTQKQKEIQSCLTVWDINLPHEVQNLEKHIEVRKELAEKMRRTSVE
As to the kind of experiment: Inhibition of pSer935 in HEK293 cells with expressed G2019S LRRK2 (Biological Example 4). It is filed as cell-based. The conditions noted are these: transfected 293T cells, 90 minutes compound treatment, MSD readout; read-out: HEK293T LRRK2 G2019S pS935. The protocol:
In this assay, inhibition of phosphorylation of LRRK2 at residue serine 935 (pS935) by test compound was determined in HEK293 cells.
HEK293 cells were first transiently transfected with a plasmid harboring FLAG-tagged human LRRK2 cDNA with G2019S mutation (p.G2019S) under the control of CMV promoter for robust overexpression. The levels of phosphorylated Ser935 in G2019S expressing cells with or without compound treatment were measured by MSD using an anti-FLAG capture antibody and a phosho-specific anti-LRRK2 pS935 monoclonal detection antibody. The IC50 was determined by fitting a 10-point dose response data in duplicate with four parameter non-linear regression curve.
(Day 1) 293T cell seeding: 293T cells were seeded (1.4×10^6/well) into each well of a 6-well plate. After two days in culture, the cell number can grow into 5×10^6/well, so N+1 wells were seeded (enough for N 96 well assay plates).
(Day 2) 293T cell transfection: 5 μL of pCMV-FLAG-G2019S or pCMV-FLAG-WT LRRK2 (0.5 μg/μL) was added into 145 μL of DMEM medium, and mixed thoroughly by pipette up and down several times. 15 μL of SuperFect Transfection Reagent was added into samples, mixed thoroughly by pipetting up and down several times, and allowed to equilibrate at room temperature for 5-10 minutes. 0.5 mL of pre-warmed cell culture medium was added into samples, and mixed thoroughly by pipetting up and down several times. 650 μL of the mixture was added dropwise into each well of the 6 well plate, the plate was swirled to mix thoroughly, and incubated in a 37° C. incubator with a humidified atmosphere of 5% CO2 for 20-24 hours.
(Day 3) 293T cells seed into 96 well plates: Cells were harvested and resuspended in cell culture medium at 0.96×10^6 cells/mL density. 50 μL/well cells were plated onto 96-well cell culture plate (48,000 cells/well), and the plates were incubated in a 37° C. incubator with a humidified atmosphere of 5% CO2 for 20-24 hours.
(Day 4) Inhibitor Treatment and Cell Lysis: The compound destination plates were thawed at room temperature and centrifuged at 2000 rpm. 55 μL cell culture medium was added into compound destination plate, and the plate was warmed at 37° C.
50 μL of cell culture medium containing compounds was transferred into cell culture plate. Plates were incubated in a 37° C. incubator with a humidified atmosphere of 5% CO2 for 90 minutes, after which all of compound-containing medium was completely aspirated manually with 300 μL pipette. 100 μL/well of Lysis Buffer was added and the plates sealed, shaken at 4° C. for 30 minutes, and stored at −20° C. until usage.
(Day 5) MSD procedure: 2 μg/25 μL/well of FLAG antibody diluted in PBS was added into the MSD plate, incubated for two hours at room temperature or overnight at 4° C. (in Day 4). 50 μL (3.9 μg/μL) of FLAG antibody plus 2.5 mL PBS, per 96 well plate, or 50 μL (3.9 μg/μL) anti-FLAG antibody plus 5 mL PBS per 384 well plate. The plates were centrifuged at 1000 rpm for 10 seconds and shaken with a plate shaker for 10 seconds.
Anti-FLAG antibody was discarded, and the wells were washed using multidrop, low speed, two times with 300 μL/well of wash buffer for a 96 well plate or three times with 70 μL/well of wash buffer for a 384 well plate. 50 μL/well of block buffer for a 96 well plate, or 25 μL/well of block buffer for a 384 well plate, was added and the plates were incubated for two hours at room temperature. The Block buffer was then discarded and the wells washed two times using multidrop, low speed, with 300 μL/well of wash buffer for a 96 well plate, or three times with 70 μL/well of wash buffer for a 384 well plate.
25 μL of cell lysate was transferred into a 96 well MSD plate, or 12.5 μL of cell lysate into 384 well MSD plate, and the plates were incubated for one hour at room temperature.
Note: The cell lysate should be thawed one hour prior to this step, the plate centrifuged at 1000 rpm for one minute, shaken for 30 seconds, and then unsealed for lysate transfer. […]

Sequence of LRRK2 G2019S enzyme (Q5S007 whole entry G2019S): as above

In the case of `Cc1nn(C2C[C@@]2(C)C(N)=O)cc1Nc1ncc(C(F)(F)F)c(NC2(C)CC2)n1` (single isomer, unassigned) [Example 1, (1,2-cis)-1-methyl-2-(3-methyl-4-((4-((1-methylcyclopropyl)amino)-5-(trifluoromethyl)pyrimidin-2-yl)amino)-1H-pyrazol-1-yl)cyclopropanecarboxamide], the IC50 is 1.03 nM against LRRK2 G2019S enzyme and 1.79 nM in data set [2]. The “HLM Avg” value in data set [1] was 0.384 L/h/kg.

As to `CNc1nc(Nc2cn([C@@H]3C[C@@H]3C(N)=O)nc2C2CC2)ncc1C(F)(F)F` (single isomer, unassigned) [Example 2, (1,2-cis)-2-(3-cyclopropyl-4-((4-(methylamino)-5-(trifluoromethyl)pyrimidin-2-yl)amino)-1H-pyrazol-1-yl)cyclopropanecarboxamide], the IC50 against LRRK2 G2019S enzyme turned out to be 2.8 nM; in data set [2], 3.06 nM.

Regarding `CCNc1nc(Nc2cn(C3C[C@@]3(C)C(N)=O)nc2C)ncc1Br` (single isomer, unassigned) [Example 3, (1,2-cis)-2-(4-((5-bromo-4-(ethylamino)pyrimidin-2-yl)amino)-3-methyl-1H-pyrazol-1-yl)-1-methylcyclopropanecarboxamide], the IC50 against LRRK2 G2019S enzyme came to 2.28 nM; in data set [2], 10.5 nM.

`Cc1nn(C2C[C@]2(C)C(N)=O)cc1Nc1ncc(C(F)(F)F)c(NC2(C)CC2)n1` (single isomer, unassigned) [Example 4, (1,2-cis)-1-methyl-2-(3-methyl-4-((4-((1-methylcyclopropyl)amino)-5-(trifluoromethyl)pyrimidin-2-yl)amino)-1H-pyrazol-1-yl)cyclopropanecarboxamide]: the IC50 against LRRK2 G2019S enzyme worked out at 1.49 nM; in data set [2] it was 3 nM. The “HLM Avg” value in data set [1] was 0.534 L/h/kg.

Consider `CCNc1nc(Nc2cn([C@@H]3C[C@]3(C)C(N)=O)nc2C2CC2)ncc1C(F)(F)F` (single isomer, unassigned) [Example 5, (1,2-cis)-2-(3-cyclopropyl-4-((4-(ethylamino)-5-(trifluoromethyl)pyrimidin-2-yl)amino)-1H-pyrazol-1-yl)-1-methylcyclopropanecarboxamide], for which the IC50 on LRRK2 G2019S enzyme worked out at 0.92 nM; in data set [2], 5.12 nM. The “HLM Avg” value in data set [1] was 0.66 L/h/kg.

On to `Cc1nn(C2C[C@]2(C)C(N)=O)cc1Nc1ncc(C(F)(F)F)c(NC2CC2)n1` (single isomer, unassigned) [Example 6, (1,2-cis)-2-(4-((4-(cyclopropylamino)-5-(trifluoromethyl)pyrimidin-2-yl)amino)-3-methyl-1H-pyrazol-1-yl)-1-methylcyclopropanecarboxamide], for which the figures for the IC50 (at LRRK2 G2019S enzyme; in data set [2]) were 1.23 nM and 5.79 nM, respectively.

Regarding `CCNc1nc(Nc2cn([C@@H]3C[C@@H]3C(N)=O)nc2C2CC2)ncc1C(F)(F)F` (single isomer, unassigned) [Example 8, (1,2-cis)-2-(3-cyclopropyl-4-((4-(ethylamino)-5-(trifluoromethyl)pyrimidin-2-yl)amino)-1H-pyrazol-1-yl)cyclopropanecarboxamide], the IC50 against LRRK2 G2019S enzyme was found to be 1.11 nM; in data set [2], 4.94 nM.

(Values after patent US12358896B2, “LRRK2 inhibitors and methods of making and using thereof” (DENALI THERAPEUTICS INC., priority 2019, dated 2025).)
